According to US20230357099A1, “PYRAZOLO [3,4-B] PYRIDINE-4-CARBOXAMIDE NITRIFICATION INHIBITOR” (EUROCHEM ANTWERPTEN, priority 2020, published 2023):

Columns and labels:
[1] = system: ABIL (ammonia-binding liquid inoculum), nitrifying microbial enrichment containing both AOA and AOB; test: Nitrification inhibition assay on ABIL (ammonium consumption); type: cell-based; details: 10 µM compound; structural variants outside formula (I); read-out: Relative nitrification (%) by ABIL treated with 10 µM compound
[2] = system: Nitrososphaera viennensis; test: Nitrification inhibition assay on Nitrososphaera viennensis (nitrite, Griess); type: cell-based, Nitrososphaera viennensis EN76T; details: Nitrososphaera viennensis; 2.5 µM compound; structural variants outside formula (I); read-out: Relative nitrification (%) by Nitrososphaera viennensis treated with 2.5 µM compound
Protocol: Nitrite (NO2—) was measured using the Griess reagent (Product number: G4410, Griess reagent (modified), Sigma-Aldrich). Equal volumes of the sample or a diluted sample and the Griess reagent were mixed a transparent flat bottom multi-well plate and incubated in the dark at room temperature for 10 minutes. Absorbance values at 540 nm were measured spectrophotometrically (EnVision, Perkin Elmer®) and used to calculate the [NO2—] by use of a standard curve.
A liquid culture sample of Nitrososphaera viennensis EN76T was kindly supplied by prof. dr. Christa Schleper (University of Vienna). Cells were grown in fresh water medium (FWM) as described earlier by Tourna et al. (2011). All necessary materials were rinsed with 1 % HCl and washed at least 3 times with MilliQ water. FWM (pH 7.5 (KOH)) contained 17 mM NaCl, 3 mM MgCl2 × 2 H2O, 680 µM CaCl2 × 2 H2O, 1.47 mM KH2PO4 and 6.71 mM KCI. After autoclaving, successively 1 mL non-chelated trace element mixture (101 mM HCl, 488 µM H3BO3, 508 µM MnCl2 × 4 H2O, 803 µM CoCl2 × 6 H2O, 101 µM NiCl2 × 6 H2O, 12 µM CuCl2 × 2 H2O, 503 µM ZnSO4 × 7 H2O and 150 µM Na2MoO4 × 2 H2O), 1 mL Fe-NaEDTA (7.5 mM), 1 mL vitamin solution (20 mg/L biotin, 20 mg/L folic acid, 100 mg/L pyridoxine-HCl, 50 mg/L thiamine-HCl, 50 mg/L riboflavin, 50 mg/L nicotinic acid, 50 mg/L DL-pantothenic acid, 50 mg/L P-aminobenzoic acid, 2 g/L choline chloride and 10 mg/L vitamin B12), 2 mL NaHCO3 (1 M), 2 mL kanamycin (100 mg/mL), 2 mL carbenicillin (100 mg/mL), 3 mL NH4Cl (1 M), 10 mL HEPES buffer (1 M, pH 7.6) and 1 mL Na-pyruvate (0.1 M) were added aseptically. All stock-solutions were filter-sterilized, except the autoclaved non-chelated trace element mixture. Cultures were incubated aerobically at 42° C. without shaking in sterile 250-mL Erlenmeyer flasks or 30-mL cultivation tubes (Product number: 216-1290, Quickstart universal containers STERILIN®, VWR) filled with either 100 or 20 mL FWM and sealed with tape (Micropore™ Surgical Tape 1530-1, 3M™). Late-log phase cultures ([NO2-] ≥ 1 mM) were subcultivated by dilution (1:400) in fresh FWM.
7-day old 100 mL cultures grown in 250-mL Erlenmeyer flasks with a [NO2-] ≥ 1 mM were 5 times overconcentrated in fresh FWM by centrifugation (4000 rpm, 15 min, 5° C.) in 50 mL centrifuge tubes (Cat. No. 430829, CentriStar™ Conical Centrifuge Tubes, Corning®). Per batch, all the cultures were pooled in one sterile Schott bottle. Subsequently, 200 µl/well was dispensed at low pipetting speed in transparent flat bottom 96-well plates (Cat. No. 353072, Falcon® 96 Well Clear Microplate, Corning®) using 150 µl wide-bore tips (two steps of 100 µl) on a Tecan robot (Freedom EVO®, Tecan). 0.5 µl of 99.99 % DMSO (negative control - final concentration 0.25%) and 0.5 µl of 0.04 M PTIO (2-phenyl-4,4,5,5-tetramethylimidazoline-1-oxyl 3-oxide, positive control - final concentration 100 µM) were added manually to the first and last column respectively. Finally, 0.5 µl of candidate nitrification inhibitors (1 mM stock solutions in 99.99% DMSO - final concentration 2.5 µM) were added to the central wells using a pin tool on a Tecan robot (Freedom EVO®, Tecan). In between additions, the pins were washed in sequence with 99.5% DMSO, MilliQ water and 100% ethanol and air-dried. All plates were sealed with tape (Micropore™ Surgical Tape 1530-1, 3M™), stacked per 4 on top of a 96-well plate filled with 100 µl MilliQ per well and covered with aluminum foil. Position effects of the stacks within the incubator were considered. Plates were incubated at 42° C. without shaking. 24 h later, NO2— was measured spectrophotometrically at 540 nm (EnVision, Perkin Elmer®). […]

| Compound | activity at 10 µM [1] [%] | activity at 2.5 µM [2] [%] |
| --- | --- | --- |
| Cc1nc2c(cnn2C(C)C)cc1C(=O)N1CCCN(C)c2nc3ccccc3nc21 [Example 91] | 100 | 100 |
| Cc1ccc2[nH]nc(C(=O)N3CCS(=O)(=O)C(C)(C)C3)c2c1 [Example 104] | 93 | 100 |
| CCC(CC)c1nnc(NC(=O)c2n[nH]c3ccccc23)s1 [Example 103] | 91 | 100 |
| CC(O)CCN(C)S(=O)(=O)c1ccc2cn[nH]c2c1 (stereo not drawn) [Example 108] | 97 | 100 |
| CCC(CC)C(CNC(=O)c1n[nH]c2ccccc12)N1CCOCC1 (stereo not drawn) [Example 127] | 100 | 100 |
| CNS(=O)(=O)c1cccc(C(=O)Nc2cnc3c(c2)c(C)nn3C)c1 [Example 43] | 98 | 100 |
| CCN(CCC#N)Cn1nc(Cl)c2ccccc21 [Example 150] | 100 | 100 |
| Cc1cccc(C)c1OCC(=O)Nc1cnc2c(cnn2C(C)C)c1 [Example 71] | 100 | 94 |
| O=C(O)CC1CSCCN1C(=O)c1cccc2cn[nH]c12 (stereo not drawn) [Example 114] | 98 | 100 |
| Cc1nc2c(c(C)nn2C)c(C)c1CCC(=O)NCCc1ccc2c(c1)OCO2 [Example 47] | 100 | 100 |
| CCCC(O)CNCc1cccc2cn[nH]c12 (stereo not drawn) [Example 155] | 100 | 100 |
| Cc1nn(-c2ccc(F)cc2)c2nc3c(cc12)C(=O)CC(C)(C)C3 [Example 72] | 100 | 99 |
| Cc1ccc2[nH]nc(C(=O)N3CC[S+]([O-])C(C)(C)C3)c2c1 (stereo not drawn) [Example 109] | 97 | 100 |
| O=S(=O)(CCC1CC1)Nc1n[nH]c2cccc(F)c12 [Example 102] | 90 | 100 |
| COc1ccc(N2CC(C(=O)Nc3ccc4[nH]ncc4c3)CC2=O)cc1 (stereo not drawn) [Example 160] | 100 | 100 |
| CC1(C)CN(C(=O)c2n[nH]c3ccccc23)CCS1(=O)=O [Example 117] | 99 | 100 |
| Cc1cc(C)c2c(OCC(=O)N3CCOCC3(C)C)nn(C)c2n1 [Example 45] | 99 | 98 |
| CC(Oc1ccc(Br)cc1)C(=O)Nc1cnc2c(cnn2C(C)C)c1 (stereo not drawn) [Example 22] | 90 | 100 |
| Clc1ccc2c(Nc3ccc4[nH]ncc4c3)ncnc2c1 [Example 99] | 90 | 100 |
| CNC(=O)C1(C(=O)Nc2cnc3c(cnn3C(C)C)c2)CC1 [Example 69] | 100 | 100 |
| O=C(c1n[nH]c2ccccc12)N1CCc2ccc(F)cc21 [Example 141] | 100 | 93 |
| c1csc(Cn2ncc3ccc(-c4ccc5c(c4)OCO5)nc32)c1 [Example 25] | 91 | 100 |
| Cc1nc2c(c(C)nn2C)c(C)c1CCC(=O)O [Example 36] | 97 | 94 |
| O=C(Nc1cccc2cn[nH]c12)c1csc(-c2ccccc2)n1 [Example 131] | 100 | 100 |
| CC(C)n1ncc2cc(NC(=O)C3(C)CC3(Cl)Cl)cnc21 (stereo not drawn) [Example 50] | 100 | 92 |
| O=S(=O)(Nc1ccc2cn[nH]c2c1)c1cccc2ccccc12 [Example 161] | 100 | 100 |

| Compound | activity at 10 µM [1] [%] | activity at 2.5 µM [2] [%] |
| --- | --- | --- |
| O=S(=O)(Nc1cccc2[nH]ncc12)N1CCCCC1 [Example 113] | 98 | 100 |
| CC(C)n1ncc2cc(CN(C)C3CCSC3)cnc21 (stereo not drawn) [Example 38] | 97 | 99 |
| CC1CCCCN1C(=O)c1n[nH]c2ccccc12 (stereo not drawn) [Example 156] | 100 | 100 |
| COC1(C(=O)Nc2ccc(-n3ncc4ccccc43)cc2)CCOC1 (stereo not drawn) [Example 134] | 100 | 100 |
| O=S(=O)(Nc1ccc2cn[nH]c2c1)c1ccc(S(=O)(=O)N2CCCC2)cc1 [Example 118] | 99 | 100 |
| O=S(=O)(Nc1cccc2cn[nH]c12)N1CCCCC1 [Example 149] | 100 | 100 |
| CCc1nnc(NC(=O)c2cnc3c(cnn3C(C)C)c2)s1 [Example 24] | 91 | 100 |
| CC(NC(=O)C1(NC(=O)c2ccc3[nH]ncc3c2)CCCC1)C1CC1 (stereo not drawn) [Example 138] | 100 | 100 |
| O=C1NCCN1c1cccc(NCc2cccc3cn[nH]c23)c1 [Example 116] | 99 | 96 |
| CC(C)n1ncc2cc(C(=O)O)cnc21 [Example 61] | 100 | 100 |
| Cc1nn(C)c2ncc(CNCCCN3CCc4ccccc43)cc12 [Example 37] | 97 | 100 |
| Cc1nn(C)c2ncc(NC(=O)CCC3CCCO3)cc12 (stereo not drawn) [Example 76] | 100 | 100 |
| Cc1nc2c(cnn2C(C)C)cc1C(=O)NC(C)C1CC1 (stereo not drawn) [Example 31] | 93 | 99 |
| Cc1cc(C)c2c(OCC(=O)N(CC(F)F)C3CC3)nn(C)c2n1 [Example 67] | 100 | 100 |
| CC(C)n1ncc2cc(NC(=O)CCc3cc4ccccc4o3)cnc21 [Example 65] | 100 | 100 |
| CCCc1nnc(NCc2cccc3cn[nH]c23)o1 [Example 151] | 100 | 94 |
| Cc1nc2c(c(C)nn2C)c(C)c1CCC(=O)N1CC(C)OC(C)C1 (stereo not drawn) [Example 46] | 99 | 90 |
| N#Cc1nn(CN2CCSCC2)c2ccc(Cl)cc12 [Example 96] | 85 | 96 |
| CC(C)n1ncc2cc(CNc3ccc4[nH]ncc4c3)ccc21 [Example 30] | 92 | 100 |
| Cc1nc2c(c(C)nn2C)c(C)c1CCC(=O)N1CCOCC1C (stereo not drawn) [Example 75] | 100 | 100 |
| COc1ccc(S(=O)(=O)Nc2cccc3cn[nH]c23)c(NS(=O)(=O)C(F)F)c1 [Example 107] | 96 | 100 |
| O=C(NC1CCc2ccccc21)c1n[nH]c2ccccc12 (stereo not drawn) [Example 132] | 100 | 97 |
| Cc1sc2nc(CN3CCCC3)nc(Nc3ccc4cn[nH]c4c3)c2c1C [Example 95] | 97 | 96 |
| CC(NC(=O)c1cnc2c(cnn2C(C)C)c1)C1CCCO1 (stereo not drawn) [Example 52] | 100 | 100 |
| Cc1nn(C)c2ncc(CN3CCNCC3C)cc12 (stereo not drawn) [Example 82] | 100 | 96 |
